This data set relates to CCRIS mutagenicity, Ames/micronucleus/aberration tests. Briefly: CCRIS mutagenicity studies.
The mark [1] stands for this setting: Test System: AMES SALMONELLA TYPHIMURIUM, Strain/Indicator: TA98, Metabolic Activation: NONE, Method: PREINCUBATION
Where [2] appears, read: Test System: AMES SALMONELLA TYPHIMURIUM, Strain/Indicator: TA100, Metabolic Activation: NONE, Method: PREINCUBATION
Setting [3] is: Test System: AMES SALMONELLA TYPHIMURIUM, Strain/Indicator: TA1535, Metabolic Activation: NONE, Method: PREINCUBATION
Setting [4] is: Test System: AMES SALMONELLA TYPHIMURIUM, Strain/Indicator: TA1537, Metabolic Activation: NONE, Method: PREINCUBATION
Where [5] appears, read: Test System: AMES SALMONELLA TYPHIMURIUM, Strain/Indicator: TA98, Metabolic Activation: NONE, Method: STANDARD PLATE.
The mark [6] stands for this setting: Test System: AMES SALMONELLA TYPHIMURIUM, Strain/Indicator: TA100, Metabolic Activation: NONE, Method: STANDARD PLATE.

Activity calls are given as the source filed them. How the calls were made is not given here.

The record followed here is PubChem BioAssay AID1259407 (Chemical Carcinogenesis Research Information System (CCRIS), 2018).

On to `CN[C@@H]1[C@H](O[C@H]2[C@H](O[C@H]3[C@H](O)[C@@H](O)[C@H](N=C(N)N)[C@@H](O)[C@@H]3N=C(N)N)O[C@@H](C)[C@]2(O)C=O)O[C@@H](CO)[C@H](O)[C@H]1O`, for which the mutagenic call is, setting by setting: (Test System: AMES SALMONELLA TYPHIMURIUM, Strain/Indicator: TA98, Metabolic Activation: HAMSTER, LIVER, S-9, AROCLOR 1254, Method: PREINCUBATION) “inactive; negative”; under setting [1], “inactive; negative”; (Test System: AMES SALMONELLA TYPHIMURIUM, Strain/Indicator: TA98, Metabolic Activation: RAT, LIVER, S-9, AROCLOR 1254, Method: PREINCUBATION) “inactive; negative”; (Test System: AMES SALMONELLA TYPHIMURIUM, Strain/Indicator: TA100, Metabolic Activation: HAMSTER, LIVER, S-9, AROCLOR 1254, Method: PREINCUBATION) “inactive; negative”; under setting [2], “inactive; negative”; (Test System: AMES SALMONELLA TYPHIMURIUM, Strain/Indicator: TA100, Metabolic Activation: RAT, LIVER, S-9, AROCLOR 1254, Method: PREINCUBATION) “inactive; negative”. The mutagenic call is “active; positive” (Test System: AMES SALMONELLA TYPHIMURIUM, Strain/Indicator: TA102, Metabolic Activation: NONE, Method: STANDARD PLATE); “active; positive” (Test System: AMES SALMONELLA TYPHIMURIUM, Strain/Indicator: TA102, Metabolic Activation: RAT, LIVER, S-9, AROCLOR 1254, Method: STANDARD PLATE); “inactive; negative” (Test System: AMES SALMONELLA TYPHIMURIUM, Strain/Indicator: TA1535, Metabolic Activation: HAMSTER, LIVER, S-9, AROCLOR 1254, Method: PREINCUBATION); “inactive; negative” under setting [3]; “inactive; negative” (Test System: AMES SALMONELLA TYPHIMURIUM, Strain/Indicator: TA1535, Metabolic Activation: RAT, LIVER, S-9, AROCLOR 1254, Method: PREINCUBATION); “inactive; negative” (Test System: AMES SALMONELLA TYPHIMURIUM, Strain/Indicator: TA1537, Metabolic Activation: HAMSTER, LIVER, S-9, AROCLOR 1254, Method: PREINCUBATION). For the same compound, the mutagenic call under setting [4] was “inactive; negative”; the mutagenic call (Test System: AMES SALMONELLA TYPHIMURIUM, Strain/Indicator: TA1537, Metabolic Activation: RAT, LIVER, S-9, AROCLOR 1254, Method: PREINCUBATION) was “inactive; negative”; the mutagenic call (Test System: AMES SALMONELLA TYPHIMURIUM, Strain/Indicator: TA2638A, Metabolic Activation: NONE, Method: STANDARD PLATE) was “inactive; negative”.
In the case of `O=C(Nc1cccc2c(=O)c3c(ccc4c5cc(NC(=O)c6ccccc6)c6c(=O)c7ccccc7c(=O)c6c5[nH]c43)c(=O)c12)c1ccccc1`, the mutagenic call is, setting by setting: (Test System: AMES SALMONELLA TYPHIMURIUM, Strain/Indicator: TA98, Metabolic Activation: HAMSTER, LIVER, S-9, AROCLOR 1254 (10%), Method: PREINCUBATION) “inactive; negative”; under setting [1], “inactive; negative”; (Test System: AMES SALMONELLA TYPHIMURIUM, Strain/Indicator: TA98, Metabolic Activation: RAT, LIVER, S-9, AROCLOR 1254 (10%), Method: PREINCUBATION) “inactive; negative”; (Test System: AMES SALMONELLA TYPHIMURIUM, Strain/Indicator: TA100, Metabolic Activation: HAMSTER, LIVER, S-9, AROCLOR 1254 (10%), Method: PREINCUBATION) “inactive; negative”; under setting [2], “inactive; negative”; (Test System: AMES SALMONELLA TYPHIMURIUM, Strain/Indicator: TA100, Metabolic Activation: RAT, LIVER, S-9, AROCLOR 1254 (10%), Method: PREINCUBATION) “inactive; negative”. Also, the mutagenic call runs as follows: (Test System: AMES SALMONELLA TYPHIMURIUM, Strain/Indicator: TA1535, Metabolic Activation: HAMSTER, LIVER, S-9, AROCLOR 1254 (10%), Method: PREINCUBATION) “inactive; negative”; under setting [3], “inactive; negative”; (Test System: AMES SALMONELLA TYPHIMURIUM, Strain/Indicator: TA1535, Metabolic Activation: RAT, LIVER, S-9, AROCLOR 1254 (10%), Method: PREINCUBATION) “inactive; negative”; (Test System: AMES SALMONELLA TYPHIMURIUM, Strain/Indicator: TA1537, Metabolic Activation: HAMSTER, LIVER, S-9, AROCLOR 1254 (10%), Method: PREINCUBATION) “inactive; negative”; under setting [4], “inactive; negative”; (Test System: AMES SALMONELLA TYPHIMURIUM, Strain/Indicator: TA1537, Metabolic Activation: RAT, LIVER, S-9, AROCLOR 1254 (10%), Method: PREINCUBATION) “inactive; negative”. The mutagenic call was “active; positive” (Test System: Ames Salmonella typhimurium, Strain/Indicator: TA98, Metabolic Activation: None, Method: Preincubation); “inactive; negative” (Test System: Ames Salmonella typhimurium, Strain/Indicator: TA100, Metabolic Activation: None, Method: Preincubation); “inactive; negative” (Test System: Ames Salmonella typhimurium, Strain/Indicator: TA102, Metabolic Activation: None, Method: Preincubation); “inactive; negative” (Test System: Ames Salmonella typhimurium, Strain/Indicator: TA1535, Metabolic Activation: None, Method: Preincubation).
On to `CNC(=O)NOC(=O)N(C)C(=O)NC`, for which the mutagenic call is “inactive; negative” under setting [5]; “inactive; negative” (Test System: AMES SALMONELLA TYPHIMURIUM, Strain/Indicator: TA98, Metabolic Activation: RAT, LIVER, S-9, Method: STANDARD PLATE); “inactive; negative” under setting [6].
As for `Cc1c2ccccc2c(C)c2c3c(ccc12)[C@H](O)[C@@H](O)C=C3`, the mutagenic call runs as follows: (Test System: CHINESE HAMSTER V-79, Strain/Indicator: V-79/6-THIOGUANINE, Metabolic Activation: CELL-MEDIATED, Method: STANDARD PLATE) “active; positive”; (Test System: CHINESE HAMSTER V-79, Strain/Indicator: V-79/OUABAIN, Metabolic Activation: CELL-MEDIATED, Method: STANDARD PLATE) “active; positive”.
Regarding `O=S(=O)(O)OCc1c2ccccc2c(CO)c2c1ccc1ccccc12`, the mutagenic call under setting [1] is “active; positive”.
As to `CC(=O)O[C@H]1C[C@@H]2C(COC(=O)CC(C)C)=CO[C@@H](OC(=O)CC(C)C)[C@@H]2[C@@]12CO2`, the mutagenic call is “inactive; negative” under setting [5]; “inactive; negative” (Test System: AMES SALMONELLA TYPHIMURIUM, Strain/Indicator: TA98, Metabolic Activation: RAT, LIVER, S-9, AROCLOR 1254, Method: STANDARD PLATE); “inactive; negative” under setting [6]; “active; positive” (Test System: AMES SALMONELLA TYPHIMURIUM, Strain/Indicator: TA100, Metabolic Activation: RAT, LIVER, S-9, AROCLOR 1254, Method: STANDARD PLATE); “inactive; negative” (Test System: AMES SALMONELLA TYPHIMURIUM, Strain/Indicator: TA1535, Metabolic Activation: NONE, Method: STANDARD PLATE); “inactive; negative” (Test System: AMES SALMONELLA TYPHIMURIUM, Strain/Indicator: TA1535, Metabolic Activation: RAT, LIVER, S-9, AROCLOR 1254, Method: STANDARD PLATE). Further, the mutagenic call reads like this: (Test System: AMES SALMONELLA TYPHIMURIUM, Strain/Indicator: TA1537, Metabolic Activation: NONE, Method: STANDARD PLATE) “inactive; negative”; (Test System: AMES SALMONELLA TYPHIMURIUM, Strain/Indicator: TA1537, Metabolic Activation: RAT, LIVER, S-9, AROCLOR 1254, Method: STANDARD PLATE) “inactive; negative”; (Test System: E. COLI, Strain/Indicator: WP2, Metabolic Activation: NONE, Method: STANDARD PLATE) “inactive; negative”; (Test System: E. COLI, Strain/Indicator: WP2, Metabolic Activation: RAT, LIVER, S-9, AROCLOR 1254, Method: STANDARD PLATE) “active; positive”; (Test System: E. COLI, Strain/Indicator: WP2 UVRA, Metabolic Activation: NONE, Method: STANDARD PLATE) “active; positive”; (Test System: E. COLI, Strain/Indicator: WP2 UVRA, Metabolic Activation: RAT, LIVER, S-9, AROCLOR 1254, Method: STANDARD PLATE) “active; positive”.
